From patent US10865203B2, “Ligands selective to alpha 6 subunit-containing GABAA receptors and their methods of use” (UWM Research Foundation, Inc., priority 2015, dated 2020)
Entries after “also recorded” stand apart in the source; their conditions may differ.

Experiments:
[1] = Microsomal stability assay, human liver microsomes; type: in vitro ADME; conditions: 10 μM test compound, 0.5 mg/mL protein, 37° C.
Method: (§1) 4 μL of 1 mM test compound at a final concentration of 10 μM dissolved in DMSO/ACN/Methanol/Ethanol was preincubated at 37° C. for 5 minutes on a digital heating shaking dry bath (Fischer scientific, Pittsburgh, Pa.) in a mixture containing 282 μL of water, 80 μL of phosphate buffer (0.5 M, pH 7.4), 20 μL of NADPH Regenerating System Solution A (BD Bioscience, San Jose, Calif.) and 4 μL of NADPH Regenerating System Solution B (BD Bioscience, San Jose, Calif.) in a total volume of 391.2 μL. Following preincubation, the reaction was initiated by addition of 8.8 μL of either human liver microsomes (BD Gentest, San Jose, Calif.), mouse liver microsomes (Life technologies, Rockford, Ill.), at a protein concentration of 0.5 mg/mL. Aliquots of 50 μL were taken at time intervals of 0 (without microsomes), 10, 20, 30, 40, 50 and 60 minutes. Each aliquot was added to 100 μL of cold acetonitrile solution containing 1 μM/2 μM internal standard. This was followed by sonication for 10 seconds and centrifugation at 10,000 rpm for 5 minutes. 100 μL of the supernatant was transferred into Spin-X HPLC filter tubes (Corning Incorporated, NY) and centrifuged at 13,000 rpm for 5 minutes. […] The ratio of the peak areas of the internal standard and test compound was calculated for every time point and the natural log of the ratio were plotted against time to determine the linear slope (k). […] All experiments were repeated three times in duplicates.

[2] = Microsomal stability assay, mouse liver microsomes; type: in vitro ADME; conditions: 10 μM test compound, 0.5 mg/mL protein, 37° C.
Method: as §1

[3] = tested on: αxβx, αxβ3γ2 and αβδ receptors; assay: Electrophysiology in Xenopus oocytes, functional screening over all tested receptors; type: cell-based, rat
Method: Mature female Xenopus laevis (Nasco, Fort Atkinson, Wis., USA) were anaesthetized in a bath of ice-cold 0.17% Tricain (Ethyl-m-aminobenzoat, Sigma-Aldrich, St. Louis, Mo., USA) before decapitation and transfer of the frog's ovary to ND96 medium (96 mM NaCl, 2 mM KCl, 1 mM MgCl2, 5 mM HEPES; pH 7.5). Following incubation in 1 mg/mL collagenase (Sigma-Aldrich, St. Louis, Mo., USA) for 30 min, stage 5 to 6 oocytes were singled out of the ovary and defolliculated using a platinum wire loop. Oocytes were stored and incubated at 18° C. in NDE medium (96 mM NaCl, 2 mM KCl, 1 mM MgCl2, 5 mM HEPES, 1.8 mM CaCl2; pH 7.5) that was supplemented with 100 U per mL-1 penicillin, 100 μg per mL-1 streptomycin and 2.5 mM pyruvate. Oocytes were injected with an aqueous solution of mRNA. A total of 2.5 ng of mRNA per oocyte was injected. […] Maximum currents measured in mRNA injected oocytes were in the microampere range for all receptor subtypes. […] Data were digitized using a Digidata 1322A or 1550 data acquisition system (Axon Instruments, Union City, Calif., USA), recorded using Clampex 10.5 software (Molecular Devices, Sunnyvale, Calif., USA), and analyzed using Clampfit 10.5 and GraphPad Prism 6.0 (La Jolla, Calif., USA) software. […]
For selected test compounds full dose response curves were recorded in α1-6β3γ2 receptors. […]

[4] = tested on: GABA-A receptors, including α6 GABA-ARs; assay: Modulation of GABA-A receptors by constituent of Cl leaves

Structure (SMILES) | % left after 1 hr. (HLM) [1] [%] | % left after 1 hr. (MLM) [2] [%] | Half-life (min) (MLM) [2] | activity in all tested receptors [3] | modulation of GABA-A receptors [4]
[2H]C([2H])([2H])Oc1ccccc1-n1nc2c3cc(Cl)ccc3[nH]cc-2c1=O [DK-I-87-1, 8-Chloro-2-(2-methoxy-d3-phenyl)-2,5-dihydro-3H-pyrazolo[4,3-c]quinolin-3-one] | 94.7 ± 0.07 | 94.91 ± 0.10 | 993 ± 189 | inactive in all receptors that were tested so far; also recorded: essentially inactive in all tested receptors | –
COc1ccccc1-n1nc2c3cc(Cl)ccc3[nH]cc-2c1=O [LAU 165, 8-Chloro-2-(2-methoxyphenyl)-2H-pyrazolo[4,3-c]quinolin-3(5H)-one] | – | – | – | inactive in all receptors that were tested so far; also recorded: essentially inactive in all tested receptors | –
COc1c(O)cc2oc(-c3ccc(O)cc3)cc(=O)c2c1O [hispidulin] | – | – | – | – | positive allosteric modulator
